Experimental data as given in patent US10968462B2, “Plants having increased tolerance to herbicides” (BASF AGRO B.V., priority 2013, dated 2021).

Tested on: transgenic T2 soybean plants
Assay: Soybean greenhouse spray test, T2 plants at V2-V3 stage, injury 0-9 point scale 1 or 2 weeks after treatment (Tables 7C-7E)
Type: in vivo, Glycine max
Settings: 2 week after treatment
Procedure: Soybean cv Jake was transformed as previously described by Siminszky et al., Phytochem Rev. 5:445-458 (2006). After regeneration, transformants were transplanted to soil in small pots, placed in growth chambers (16 hr day/8 hr night; 25° C. day/23° C. night; 65% relative humidity; 130-150 microE m-2 s-1) and subsequently tested for the presence of the T-DNA via Taqman analysis. After a few weeks, healthy, transgenic positive, single copy events were transplanted to larger pots and allowed to grow in the growth chamber. An optimal shoot for cutting was about 3-4 inches tall, with at least two nodes present. Each cutting was taken from the original transformant (mother plant) and dipped into rooting hormone powder (indole-3-butyric acid, IBA). The cutting was then placed in oasis wedges inside a bio-dome. The mother plant was taken to maturity in the greenhouse and harvested for seed. Wild type cuttings were also taken simultaneously to serve as negative controls. The cuttings were kept in the bio-dome for 5-7 days and then transplanted to 3 inch pots and then acclimated in the growth chamber for two more days. […] Other herbicides, such as AHAS (ALS—Acetolactate Synthase) inhibiting herbicides were also tested in a similar fashion for confirming cross resistance to other modes of action: Tritosulfuron, Florasulam, Metsulfuron, Rimsulfuron. Herbicide injury evaluations were taken at 2, 7, 14 and 21 days after treatment.
• 0 No Injury • 1 Minimal injury, only a few patches of leaf injury or chlorosis. • 2 Minimal injury with slightly stronger chlorosis. Overall growth points remain undamaged. • 3 Slightly stronger injury on secondary leaf tissue, but primary leaf and growth points are still undamaged. • 4 Overall plant morphology is slightly different, some chlorosis and necrosis in secondary growth points and leaf tissue. Stems are intact. Regrowth is highly probable within 1 week. • 5 Overall plant morphology is clearly different, some chlorosis and necrosis on a few leaves and growth points, but primary growth point is intact. Stem tissue is still green. Regrowth is highly probably within 1 week. • 6 Strong injury can be seen on the new leaflet growth. Plant has a high probability to survive only through regrowth at different growth points. Most of the leaves are chlorotic/necrotic but stem tissue is still green. May have regrowth but with noticeable injured appearance. • 7 Most of the active growth points are necrotic. There may be a single growth point that could survive and may be partially chlorotic or green and partially necrotic. Two leaves may still be chlorotic with some green; the rest of the plant including stem is necrotic. • 8 Plant will likely die, and all growth points are necrotic. One leaf may still be chlorotic with some green. The remainder of the plant is necrotic. • 9 Plant is dead. • * Not tested

COc1nc(C)nc(=NC(=O)NS(=O)(=O)c2ccccc2C(=O)O)[nH]1 [Metsulfuron]
injury on a 0-9 point scale (Bradi_1g07930.1 (Event 1), 1.05 g ai/ha): 1.0
injury on a 0-9 point scale (Bradi_1g07930.1 (Event 1), 2.1 g ai/ha): 0.7
injury on a 0-9 point scale (Bradi_1g07930.1 (Event 1), 4.2 g ai/ha): 2.3
injury on a 0-9 point scale (Bradi_1g07930.1 (Event 1), 8.4 g ai/ha): 3.3
injury on a 0-9 point scale (R128A_F420V (Event 1), 1.05 g ai/ha): 8.0
injury on a 0-9 point scale (R128A_F420V (Event 1), 2.1 g ai/ha): 8.0
injury on a 0-9 point scale (R128A_F420V (Event 1), 4.2 g ai/ha): 8.0
injury on a 0-9 point scale (R128A_F420V (Event 1), 8.4 g ai/ha): 8.7
injury on a 0-9 point scale (R128A_F420V (Event 2), 1.05 g ai/ha): 8.0
injury on a 0-9 point scale (R128A_F420V (Event 2), 2.1 g ai/ha): 9.0
injury on a 0-9 point scale (R128A_F420V (Event 2), 4.2 g ai/ha): 8.7
injury on a 0-9 point scale (R128A_F420V (Event 2), 8.4 g ai/ha): 9.0
injury on a 0-9 point scale (R128A_F420V + Bradi_1g07930.1 (Event 1), 1.05 g ai/ha): 2.7
injury on a 0-9 point scale (R128A_F420V + Bradi_1g07930.1 (Event 1), 2.1 g ai/ha): 3.0
injury on a 0-9 point scale (R128A_F420V + Bradi_1g07930.1 (Event 1), 4.2 g ai/ha): 4.0
injury on a 0-9 point scale (R128A_F420V + Bradi_1g07930.1 (Event 1), 8.4 g ai/ha): 4.3
injury on a 0-9 point scale (R128A_F420V + Bradi_1g07930.1 (Event 2), 1.05 g ai/ha): 3.0
injury on a 0-9 point scale (R128A_F420V + Bradi_1g07930.1 (Event 2), 2.1 g ai/ha): 3.7
injury on a 0-9 point scale (R128A_F420V + Bradi_1g07930.1 (Event 2), 4.2 g ai/ha): 3.0
injury on a 0-9 point scale (R128A_F420V + Bradi_1g07930.1 (Event 2), 8.4 g ai/ha): 3.0
injury on a 0-9 point scale (wild type, 1.05 g ai/ha): 8.5
injury on a 0-9 point scale (wild type, 2.1 g ai/ha): 8.3
injury on a 0-9 point scale (wild type, 4.2 g ai/ha): 8.8
injury on a 0-9 point scale (wild type, 8.4 g ai/ha): 8.5

COc1ncc(F)c2nc(S(=O)(=O)Nc3c(F)cccc3F)nn12 [Flurasulam]
injury on a 0-9 point scale (Bradi_1g07930.1 (Event 1), 0.156 g ai/ha): 0.3
injury on a 0-9 point scale (Bradi_1g07930.1 (Event 1), 0.3125 g ai/ha): 0.5
injury on a 0-9 point scale (Bradi_1g07930.1 (Event 1), 0.625 g ai/ha): 2.5
injury on a 0-9 point scale (Bradi_1g07930.1 (Event 1), Flurasulam 1.25 g ai/ha): 3.0
injury on a 0-9 point scale (Bradi_1g07930.1 (Event 1), Flurasulam 2.5 g ai/ha): 1.7
injury on a 0-9 point scale (Bradi_1g07930.1 (Event 1), Flurasulam 5 g ai/ha): 3.3
injury on a 0-9 point scale (R128A_F420V (Event 1), 0.156 g ai/ha): 0.0
injury on a 0-9 point scale (R128A_F420V (Event 1), 0.3125 g ai/ha): 3.3
injury on a 0-9 point scale (R128A_F420V (Event 1), 0.625 g ai/ha): 3.5
injury on a 0-9 point scale (R128A_F420V (Event 1), Flurasulam 1.25 g ai/ha): 4.5
injury on a 0-9 point scale (R128A_F420V (Event 1), Flurasulam 2.5 g ai/ha): 6.8
injury on a 0-9 point scale (R128A_F420V (Event 1), Flurasulam 5 g ai/ha): 6.5
injury on a 0-9 point scale (R128A_F420V (Event 2), 0.156 g ai/ha): 1.0
injury on a 0-9 point scale (R128A_F420V (Event 2), 0.3125 g ai/ha): 1.0
injury on a 0-9 point scale (R128A_F420V (Event 2), 0.625 g ai/ha): 3.5
injury on a 0-9 point scale (R128A_F420V (Event 2), Flurasulam 1.25 g ai/ha): 5.0
injury on a 0-9 point scale (R128A_F420V (Event 2), Flurasulam 2.5 g ai/ha): 6.0
injury on a 0-9 point scale (R128A_F420V (Event 2), Flurasulam 5 g ai/ha): 6.0
injury on a 0-9 point scale (R128A_F420V + Bradi_1g07930.1 (Event 1), 0.156 g ai/ha): 1.5
injury on a 0-9 point scale (R128A_F420V + Bradi_1g07930.1 (Event 1), 0.3125 g ai/ha): 2.3
injury on a 0-9 point scale (R128A_F420V + Bradi_1g07930.1 (Event 1), 0.625 g ai/ha): 3.0
injury on a 0-9 point scale (R128A_F420V + Bradi_1g07930.1 (Event 1), Flurasulam 1.25 g ai/ha): 3.5
injury on a 0-9 point scale (R128A_F420V + Bradi_1g07930.1 (Event 1), Flurasulam 2.5 g ai/ha): 3.3
injury on a 0-9 point scale (R128A_F420V + Bradi_1g07930.1 (Event 1), Flurasulam 5 g ai/ha): 2.5
injury on a 0-9 point scale (R128A_F420V + Bradi_1g07930.1 (Event 2), 0.156 g ai/ha): 3.3
injury on a 0-9 point scale (R128A_F420V + Bradi_1g07930.1 (Event 2), 0.3125 g ai/ha): 3.0
injury on a 0-9 point scale (R128A_F420V + Bradi_1g07930.1 (Event 2), 0.625 g ai/ha): 3.0
injury on a 0-9 point scale (R128A_F420V + Bradi_1g07930.1 (Event 2), Flurasulam 1.25 g ai/ha): 3.5
injury on a 0-9 point scale (R128A_F420V + Bradi_1g07930.1 (Event 2), Flurasulam 2.5 g ai/ha): 3.0
injury on a 0-9 point scale (R128A_F420V + Bradi_1g07930.1 (Event 2), Flurasulam 5 g ai/ha): 3.5
injury on a 0-9 point scale (wild type, 0.156 g ai/ha): 0.3
injury on a 0-9 point scale (wild type, 0.3125 g ai/ha): 3.0
injury on a 0-9 point scale (wild type, 0.625 g ai/ha): 4.0
injury on a 0-9 point scale (wild type, Flurasulam 1.25 g ai/ha): 5.5
injury on a 0-9 point scale (wild type, Flurasulam 2.5 g ai/ha): 6.0
injury on a 0-9 point scale (wild type, Flurasulam 5 g ai/ha): 7.5
